The results in this text go back to patent publication US20250025443A1, “COMPOUNDS AND METHODS FOR TREATING CORONA VIRUSES” (CLEAR CREEK BIO, INC., priority 2021, published 2025).

For this test, the target named is SARS-CoV-2 Papain-Like Protease (PLpro) (Severe acute respiratory syndrome coronavirus 2 (2019-nCoV) (SARS-CoV-2), UniProt P0DTD1). The experiment in a line: biochemical. To be noted: read-out: PLpro IC50.
Setting [1] is: PLpro 6.25 nM, substrate 25 μM, 60 min at 25° C., for more potent compounds PLpro 1 nM, 120 min.
The mark [2] stands for this setting: SARS-CoV-2 PLpro enzymatic fluorescence assay.

pIC50: −log10 of the molar value. Read-outs that look alike come from different tables or passages of the source.

With `COc1ccc(C)c(C(=O)N[C@H](C)c2cccc3ccccc23)c1` [Compound 136, (R)-5-Methoxy-2-methyl-N-(1-(naphthalen-1-yl)ethyl)benzamide], the pIC50 under setting [1] was 5.30 to 6.00.

In the case of `Cc1ccc(Nc2cnn(C)c2)cc1C(=O)N[C@H](C)c1cccc(-c2ccc(CN[C@H]3CC[C@@H](O)C3)s2)c1` [Compound 137, N-((R)-1-(3-(5-((((1S,3R)-3-Hydroxycyclopentyl)amino)methyl)thiophen-2-yl)phenyl)ethyl)-2-methyl-5-((1-methyl-1H-pyrazol-4-yl)amino)benzamide], under setting [2], the pIC50 is 5.30 to 6.00.

Turning to `Cc1ccc(N)cc1S(=O)(=O)N[C@H](C)c1cccc2ccccc12` [Compound 138, (R)-5-Amino-2-methyl-N-(1-(naphthalen-1-yl)ethyl)benzenesulfonamide], the pIC50 under setting [2] is less than 5.30.

In the case of `CC(c1cccc2ccccc12)N1CCc2ccc(NC(=O)Cc3ccccc3)cc2C1` (centres unmarked) [Compound 139, N-(2-(1-(Naphthalen-1-yl)ethyl)-1,2,3,4-tetrahydroisoquinolin-7-yl)-2-phenylacetamide], under setting [2], the pIC50 is less than 5.30.

Consider `Cc1ccc(Nc2cn[nH]c2)cc1C(=O)N[C@H](C)c1cccc(-c2ccc(CN[C@H]3CC[C@@H](O)C3)s2)c1` [Compound 140, 5-((1H-Pyrazol-4-yl)amino)-N-((R)-1-(3-(5-((((1S,3R)-3-hydroxycyclopentyl)amino)methyl)thiophen-2-yl)phenyl)ethyl)-2-methylbenzamide], for which, under setting [2], the pIC50 was 5.30 to 6.00.

Consider `Cc1cc2cn[nH]c2cc1C(=O)N[C@H](C)c1cccc2ccccc12` [Compound 142, (R)-5-Methyl-N-(1-(naphthalen-1-yl)ethyl)-1H-indazole-6-carboxamide], for which the pIC50 under setting [2] is 6.00 to 7.00.

Take `CC(c1cccc2ccccc12)N1CC(CC(=O)NCc2cccc(F)c2)C1` (centres unmarked) [Compound 143, N-(3-Fluorobenzyl)-2-(1-(1-(naphthalen-1-yl)ethyl)azetidin-3-yl)acetamide]: the pIC50 under setting [2] was less than 5.30.

For the compound `CC(c1cccc2ccccc12)N1CCC(C(=O)NCc2cccc(F)c2)C1` (centres unmarked) [Compound 144, N-(3-Fluorobenzyl)-1-(1-(naphthalen-1-yl)ethyl)pyrrolidine-3-carboxamide], the pIC50 under setting [2] was less than 5.30.

For `Cc1cc2c(cc1C(=O)N[C@H](C)c1cccc3ccccc13)OCO2` [Compound 145, (R)-6-Methyl-N-(1-(naphthalen-1-yl)ethyl)benzo[d][1,3]dioxole-5-carboxamide], the pIC50 under setting [2] was 5.30 to 6.00.

`Cc1ccc(N)cc1C(=O)NC1(c2cccc3ccccc23)CC1` [Compound 147, 5-Amino-2-methyl-N-(1-(naphthalen-1-yl)cyclopropyl)benzamide]: under setting [2], the pIC50 was 6.00 to 7.00.

With `Cc1cc2cc(CN)[nH]c2cc1C(=O)N[C@H](C)c1cccc2ccccc12` [Compound 148, (R)-2-(Aminomethyl)-5-methyl-N-(1-(naphthalen-1-yl)ethyl)-1H-indole-6-carboxamide], the pIC50 under setting [2] was 6.00 to 7.00.

As to `C[C@H](c1cccc2ccccc12)N1C[C@@H]2[C@H](C1)[C@H]2C(=O)NCc1cccc(F)c1` [Compound 149], the pIC50 under setting [2] was less than 5.30.

On to `Cc1cc2cccnc2cc1C(=O)N[C@H](C)c1cccc2ccccc12` [Compound 150, (R)-6-Methyl-N-(1-(naphthalen-1-yl)ethyl)quinoline-7-carboxamide], for which the pIC50 under setting [2] was 5.30 to 6.00.

In the case of `Cc1cc2nc(CN)[nH]c2cc1C(=O)N[C@H](C)c1cccc(-c2ccc(CN[C@H]3CC[C@@H](O)C3)s2)c1` [Compound 151, 2-(Aminomethyl)-N-((R)-1-(3-(5-((((1S,3R)-3-hydroxycyclopentyl)amino)methyl)thiophen-2-yl)phenyl)ethyl)-5-methyl-1H-benzo[d]imidazole-6-carboxamide], under setting [2], the pIC50 was 6.00 to 7.00.

`Cc1ccc(OC2COC2)cc1C(=O)N[C@H](C)c1cccc2ccccc12` [Compound 152, (R)-2-Methyl-N-(1-(naphthalen-1-yl)ethyl)-5-(oxetan-3-yloxy)benzamide]: under setting [2], the pIC50 is 5.30 to 6.00.

As for `Cc1cc2cc[nH]c2cc1C(=O)N[C@H](C)c1cccc2ccccc12` [Compound 153, (R)-5-Methyl-N-(1-(naphthalen-1-yl)ethyl)-1H-indole-6-carboxamide], under setting [2], the pIC50 was 5.30 to 6.00.

As to `Cc1cc2cccnc2cc1C(=O)N[C@H](C)c1cccc(-c2ccc(CN[C@H]3CC[C@@H](O)C3)s2)c1` [Compound 154, N-((R)-1-(3-(5-((((1S,3R)-3-Hydroxycyclopentyl)amino)methyl)thiophen-2-yl)phenyl)ethyl)-6-methylquinoline-7-carboxamide], the pIC50 under setting [2] is 5.30 to 6.00.

On to `CC(=O)c1ccc(C)c(C(=O)N[C@H](C)c2cccc3ccccc23)c1` [Compound 155, (R)-5-Acetyl-2-methyl-N-(1-(naphthalen-1-yl)ethyl)benzamide], for which the pIC50 under setting [1] is less than 5.30.

Regarding `Cc1cc2cc(C3CNC3)[nH]c2cc1C(=O)N[C@H](C)c1cccc2ccccc12` [Compound 156, (R)-2-(Azetidin-3-yl)-5-methyl-N-(1-(naphthalen-1-yl)ethyl)-1H-indole-6-carboxamide], under setting [2], the pIC50 is 5.30 to 6.00.

As for `Cc1ccc(OCCNC(=O)OC(C)(C)C)cc1C(=O)N[C@H](C)c1cccc2ccccc12` [Compound 158, (R)-tert-Butyl(2-(4-methyl-3-((1-(naphthalen-1-yl)ethyl)carbamoyl)phenoxy)ethyl)carbamate], the pIC50 under setting [2] was 5.30 to 6.00.

On to `Cc1ccc(OCCN(C)C)cc1C(=O)N[C@H](C)c1cccc2ccccc12` [Compound 160, (R)-5-(2-(Dimethylamino)ethoxy)-2-methyl-N-(1-(naphthalen-1-yl)ethyl)benzamide], for which the pIC50 under setting [2] is 6.00 to 7.00.

For `CCS(=O)(=O)N1CCC([C@@H](C)NC(=O)c2cc(NC3CN(C(=O)OC(C)(C)C)C3)ccc2C)CC1` [Compound 161, tert-Butyl (R)-3-((3-((1-(1-(ethylsulfonyl)piperidin-4-yl)ethyl)carbamoyl)-4-methylphenyl)amino)azetidine-1-carboxylate], the pIC50 under setting [2] is less than 5.30.

In the case of `Cc1ccc(OC2CCNCC2)cc1C(=O)N[C@H](C)c1cccc2ccccc12` [Compound 162, (R)-2-Methyl-N-(1-(naphthalen-1-yl)ethyl)-5-(piperidin-4-yloxy)benzamide], under setting [2], the pIC50 was 6.00 to 7.00.

Consider `Cc1ccc(N)cc1NC(=O)C(C)c1cccc2ccccc12` (centres unmarked) [Compound 163, N-(5-Amino-2-methylphenyl)-2-(naphthalen-1-yl)propanamide], for which, under setting [2], the pIC50 was less than 5.30.

As to `Cc1ccc(OC2CCN(C(=O)OC(C)(C)C)CC2)cc1C(=O)N[C@H](C)c1cccc2ccccc12` [Compound 164, (R)-tert-Butyl 4-(4-methyl-3-((1-(naphthalen-1-yl)ethyl)carbamoyl)phenoxy)piperidine-1-carboxylate], the pIC50 under setting [2] is 5.30 to 6.00.

Consider `CC(=O)N(c1ccc(C)c(C(=O)N[C@H](C)c2cccc3ccccc23)c1)C(CN)CO` (stereo partly drawn) [Compound 165, 5-(N-(1-Amino-3-hydroxypropan-2-yl)acetamido)-2-methyl-N-((R)-1-(naphthalen-1-yl)ethyl)benzamide], for which the pIC50 under setting [2] was less than 5.30.

For `CCS(=O)(=O)N1CCC([C@@H](C)NC(=O)c2cc(NC3CNC3)ccc2C)CC1` [Compound 166, (R)-5-(Azetidin-3-ylamino)-N-(1-(1-(ethylsulfonyl)piperidin-4-yl)ethyl)-2-methylbenzamide], the pIC50 under setting [2] was less than 5.30.

Turning to `Cc1cc2ccc(=O)[nH]c2cc1C(=O)N[C@H](C)c1cccc2ccccc12` [Compound 167, (R)-6-Methyl-N-(1-(naphthalen-1-yl)ethyl)-2-oxo-1,2-dihydroquinoline-7-carboxamide], the pIC50 under setting [2] is less than 5.30.

Take `Cc1ccc(NC2CNC2)cc1C(=O)NC(C)c1cccc2c1OCCO2` (centres unmarked) [Compound 168, 5-(Azetidin-3-ylamino)-N-(1-(2,3-dihydrobenzo[b][1,4]dioxin-5-yl)ethyl)-2-methylbenzamide]: the pIC50 under setting [1] is less than 5.30.

`Cc1ccc(NC2CNC2)cc1C(=O)NC1(c2cccc(-c3cccs3)c2)CC1` [Compound 169, 5-(Azetidin-3-ylamino)-2-methyl-N-(1-(3-(thiophen-2-yl)phenyl)cyclopropyl)benzamide]: under setting [2], the pIC50 was 6.00 to 7.00.

In the case of `Cc1cc2cc(CN)[nH]c2cc1C(=O)NC1(c2cccc3ccccc23)CC1` [Compound 170, 2-(Aminomethyl)-5-methyl-N-(1-(naphthalen-1-yl)cyclopropyl)-1H-indole-6-carboxamide], under setting [2], the pIC50 was greater than 7.00.

Regarding `Cc1ccc(OC2CNC2)cc1C(=O)NC1(c2cccc3ccccc23)CC1` [Compound 171, 5-(Azetidin-3-yloxy)-2-methyl-N-(1-(naphthalen-1-yl)cyclopropyl)benzamide], the pIC50 under setting [2] was 6.00 to 7.00.

Take `Cc1ccc(NC2CNC2)cc1C(=O)NC(C)c1cccc2c1CCCC2` (centres unmarked) [Compound 172, 5-(Azetidin-3-ylamino)-2-methyl-N-(1-(5,6,7,8-tetrahydronaphthalen-1-yl)ethyl)benzamide]: under setting [1], the pIC50 was less than 5.30.

As for `Cc1cc2cc(CN(C)C)[nH]c2cc1C(=O)NC1(c2cccc3ccccc23)CC1` [Compound 173, 2-((Dimethylamino)methyl)-5-methyl-N-(1-(naphthalen-1-yl)cyclopropyl)-1H-indole-6-carboxamide], under setting [2], the pIC50 was 6.00 to 7.00.

With `Cc1cc2cn[nH]c2cc1C(=O)NC1(c2cccc3ccccc23)CC1` [Compound 176, 5-Methyl-N-(1-(naphthalen-1-yl)cyclopropyl)-1H-indazole-6-carboxamide], the pIC50 under setting [2] is 6.00 to 7.00.

`Cc1ccc(NC2CNC2)cc1C(=O)NC1(c2cccc3ccccc23)CC1` [Compound 177, 5-(Azetidin-3-ylamino)-2-methyl-N-(1-(naphthalen-1-yl)cyclopropyl)benzamide]: under setting [2], the pIC50 was 6.00 to 7.00.

With `c1ccc2c(C3(NCc4ccc5[nH]ncc5c4)CC3)cccc2c1` [Compound 178, N-((1H-indazol-5-yl)methyl)-1-(naphthalen-1-yl)cyclopropan-1-amine], the pIC50 under setting [2] was less than 5.30.

In the case of `Cc1cc2cc(CNC(=O)OC(C)(C)C)[nH]c2cc1C(=O)NC1(c2cccc3ccccc23)CC1` [Compound 180, tert-Butyl((5-methyl-6-((1-(naphthalen-1-yl)cyclopropyl)carbamoyl)-1H-indol-2-yl)methyl)carbamate], the pIC50 under setting [2] is 6.00 to 7.00.
